Experimental data reported in patent US8835429B2, “Pyrimidine compounds, their use as mTOR kinase and Pl3 kinase inhibitors, and their syntheses” (Wyeth LLC, priority 2009, dated 2014).
pIC50: −log10 of the molar value.

Experiments:
PI3K-alpha = PI3K-alpha (Homo sapiens, UniProt P42336); experiment: PI3K-alpha fluorescence polarization assay; type: biochemical; details: 20 μM PIP2, 25 μM ATP; read-out: PI3Kα IC50
How it was run: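 PIP2 (diC8) and ATP substrate with PI3K in 20 mM HEPES pH 7.5, 2 mM MgCl2, 0.05% CHAPS, 0.01% βME; 1% DMSO final; 30–60 min reaction. Stopped with EDTA plus GST-GRP (70 nM) and TAMRA probe (10 nM); FP (mP) read after 30–90 min, with no-enzyme controls.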

LNCap = experiment: In vitro cell growth assay (MTS), LNCap; type: cell-based; details: LNCaP, 72 h, human prostate line, three days after drug treatment
mTOR = mTOR (Homo sapiens, UniProt P42345); experiment: mTOR enzyme assay (DELFIA, purified FLAG-TOR, His6-S6K substrate); type: biochemical; parameters: FLAG; details: 100 μM ATP, 2 hours
PI3K-gamma = PI3K-gamma (Homo sapiens, UniProt P48736); experiment: PI3K-gamma fluorescence polarization assay; type: biochemical; details: 20 μM PIP2, 25 μM ATP; read-out: PI3Kγ IC50
Method: The reaction buffer was 20 mM HEPES, pH 7.5, 2 mM MgCl2, 0.05% CHAPS; and 0.01% βME (added fresh). The stop/detection buffer was 100 mM HEPES, pH 7.5, 4 mM EDTA, 0.05% CHAPS; ATP 20 mM in water; PIP2 (diC8, Echelon, Salt Lake City Utah cat #P-4508) 1 mM in water (MW=856.5). The GST-GRP was 1.75 mg/mL or 1.4 mg/mL in 10% glycerol. The red detector (TAMRA) was 2.5 μM. Nunc 384-well black polypropylene fluorescent plates were used for PI3K assays.
The assay is run by placing 5 μL of diluted enzyme per well, then 5 μL of diluted compound (or 9.5 μL enzyme then 0.5 μL compound in DMSO) is added and mixed. Then, 10 μL substrate is added to start the reaction. The samples are incubated 30-60 minutes, then the reaction is stopped by adding 20 μL stop/detector mix. PI3K is diluted with reaction buffer (e.g., 5 μL or 7.5 μL PI3K into 620 μL reaction buffer), and 5 μL of diluted enzyme is used per well. A 5 μL portion of reaction buffer or of drug diluted in buffer (e.g., 4 μL/100 so final DMSO is 1% in reaction) is added to each. Pipetting up and down mixes the samples. Alternatively, the enzyme can be diluted to 1215 μL. In this case 9.8 μL is added per well and 0.2 μL compound is added in DMSO.
To prepare 1 mL of substrate solution, 955 μL reaction buffer, 40 μL PIP2, and 2.5 μL ATP are mixed. 10 μL of substrate is added to each well to start the reaction. […] The stop/detector mix is prepared by mixing 4 μL red detector and 1.6 μL or 2.0 μL GST-GRP with 1 mL stop buffer, which results in 10 nM probe and 70 nM GST-GRP. 20 μL of the stop/detector mix is added to each well to stop the reaction. The plates are read after 30-90 minutes keeping the red probe solutions dark. For the zero time point, stop/detector mix is added to the enzyme just before adding substrate. For an extra control, stop/detector mix is added to buffer (no enzyme) and substrate or to just buffer (no substrate). […] The recommended reaction has 0.06 μL per 20 μL (0.015 μg/20 μL) or 0.01125 μg/15 μL or 0.75 μg/mL.
Plates are read on machines with filters for TAMRA. The units are mP with no enzyme controls reading app 190-220 mP units. Fully active enzyme reduces fluorescence polarization down to 70-100 mP after 30 minutes. An active compound raises the mP values halfway to control or to 120-150 mP units.

MDA468 = experiment: In vitro cell growth assay (MTS), MDA468; type: cell-based; details: 72 h, human breast line MDA468, three days after drug treatment, read-out: MDA IC50

PI3K-alpha, sequence (P42336 whole entry, species assumed): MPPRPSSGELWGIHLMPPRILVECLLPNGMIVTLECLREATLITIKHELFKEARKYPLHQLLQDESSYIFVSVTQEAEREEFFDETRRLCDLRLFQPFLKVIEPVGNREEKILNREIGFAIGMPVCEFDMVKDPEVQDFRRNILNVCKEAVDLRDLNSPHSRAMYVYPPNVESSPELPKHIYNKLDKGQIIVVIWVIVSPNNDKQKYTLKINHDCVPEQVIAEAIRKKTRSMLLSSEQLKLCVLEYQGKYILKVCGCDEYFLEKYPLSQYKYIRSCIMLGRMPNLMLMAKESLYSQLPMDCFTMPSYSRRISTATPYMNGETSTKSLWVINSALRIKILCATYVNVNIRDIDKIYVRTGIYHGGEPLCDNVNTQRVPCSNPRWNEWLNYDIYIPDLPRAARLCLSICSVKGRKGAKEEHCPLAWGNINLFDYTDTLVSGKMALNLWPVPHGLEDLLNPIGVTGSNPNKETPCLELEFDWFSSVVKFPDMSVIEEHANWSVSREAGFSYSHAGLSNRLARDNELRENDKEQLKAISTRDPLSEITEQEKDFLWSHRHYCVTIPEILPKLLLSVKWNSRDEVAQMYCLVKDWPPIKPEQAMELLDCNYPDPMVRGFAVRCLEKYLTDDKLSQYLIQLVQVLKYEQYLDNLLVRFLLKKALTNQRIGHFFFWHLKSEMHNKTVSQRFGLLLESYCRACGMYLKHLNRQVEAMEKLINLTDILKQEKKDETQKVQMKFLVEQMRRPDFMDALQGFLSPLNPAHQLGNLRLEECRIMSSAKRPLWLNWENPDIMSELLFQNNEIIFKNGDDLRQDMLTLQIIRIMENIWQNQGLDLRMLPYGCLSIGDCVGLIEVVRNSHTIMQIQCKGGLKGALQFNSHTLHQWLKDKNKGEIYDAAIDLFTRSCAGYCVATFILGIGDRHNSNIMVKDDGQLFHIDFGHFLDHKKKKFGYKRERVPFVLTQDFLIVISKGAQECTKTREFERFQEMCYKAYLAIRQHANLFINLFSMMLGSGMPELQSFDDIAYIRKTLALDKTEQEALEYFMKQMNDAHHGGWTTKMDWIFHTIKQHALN
PI3K-alpha, sequence (P27986 whole entry partner, species assumed): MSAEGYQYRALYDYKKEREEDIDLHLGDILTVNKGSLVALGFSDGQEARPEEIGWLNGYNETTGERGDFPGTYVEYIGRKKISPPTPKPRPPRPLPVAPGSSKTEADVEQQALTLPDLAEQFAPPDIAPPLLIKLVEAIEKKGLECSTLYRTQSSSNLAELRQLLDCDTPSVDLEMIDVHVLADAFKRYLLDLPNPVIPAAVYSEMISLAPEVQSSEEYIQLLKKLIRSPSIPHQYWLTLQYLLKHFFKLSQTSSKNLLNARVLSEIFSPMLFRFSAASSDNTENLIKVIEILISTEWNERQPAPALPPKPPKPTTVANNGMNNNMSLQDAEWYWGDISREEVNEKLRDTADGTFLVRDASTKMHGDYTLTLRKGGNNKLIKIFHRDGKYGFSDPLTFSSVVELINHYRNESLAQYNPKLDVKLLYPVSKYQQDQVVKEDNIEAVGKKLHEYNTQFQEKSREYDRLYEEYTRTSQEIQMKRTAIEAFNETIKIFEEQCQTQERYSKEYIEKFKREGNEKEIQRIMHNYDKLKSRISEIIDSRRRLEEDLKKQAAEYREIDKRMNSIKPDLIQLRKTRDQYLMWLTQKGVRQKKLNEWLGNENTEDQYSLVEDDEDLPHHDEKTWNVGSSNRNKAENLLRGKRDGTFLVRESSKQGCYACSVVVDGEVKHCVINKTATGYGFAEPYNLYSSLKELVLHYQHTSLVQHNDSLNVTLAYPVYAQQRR
mTOR, sequence (P42345 1360-2549 limits assumed): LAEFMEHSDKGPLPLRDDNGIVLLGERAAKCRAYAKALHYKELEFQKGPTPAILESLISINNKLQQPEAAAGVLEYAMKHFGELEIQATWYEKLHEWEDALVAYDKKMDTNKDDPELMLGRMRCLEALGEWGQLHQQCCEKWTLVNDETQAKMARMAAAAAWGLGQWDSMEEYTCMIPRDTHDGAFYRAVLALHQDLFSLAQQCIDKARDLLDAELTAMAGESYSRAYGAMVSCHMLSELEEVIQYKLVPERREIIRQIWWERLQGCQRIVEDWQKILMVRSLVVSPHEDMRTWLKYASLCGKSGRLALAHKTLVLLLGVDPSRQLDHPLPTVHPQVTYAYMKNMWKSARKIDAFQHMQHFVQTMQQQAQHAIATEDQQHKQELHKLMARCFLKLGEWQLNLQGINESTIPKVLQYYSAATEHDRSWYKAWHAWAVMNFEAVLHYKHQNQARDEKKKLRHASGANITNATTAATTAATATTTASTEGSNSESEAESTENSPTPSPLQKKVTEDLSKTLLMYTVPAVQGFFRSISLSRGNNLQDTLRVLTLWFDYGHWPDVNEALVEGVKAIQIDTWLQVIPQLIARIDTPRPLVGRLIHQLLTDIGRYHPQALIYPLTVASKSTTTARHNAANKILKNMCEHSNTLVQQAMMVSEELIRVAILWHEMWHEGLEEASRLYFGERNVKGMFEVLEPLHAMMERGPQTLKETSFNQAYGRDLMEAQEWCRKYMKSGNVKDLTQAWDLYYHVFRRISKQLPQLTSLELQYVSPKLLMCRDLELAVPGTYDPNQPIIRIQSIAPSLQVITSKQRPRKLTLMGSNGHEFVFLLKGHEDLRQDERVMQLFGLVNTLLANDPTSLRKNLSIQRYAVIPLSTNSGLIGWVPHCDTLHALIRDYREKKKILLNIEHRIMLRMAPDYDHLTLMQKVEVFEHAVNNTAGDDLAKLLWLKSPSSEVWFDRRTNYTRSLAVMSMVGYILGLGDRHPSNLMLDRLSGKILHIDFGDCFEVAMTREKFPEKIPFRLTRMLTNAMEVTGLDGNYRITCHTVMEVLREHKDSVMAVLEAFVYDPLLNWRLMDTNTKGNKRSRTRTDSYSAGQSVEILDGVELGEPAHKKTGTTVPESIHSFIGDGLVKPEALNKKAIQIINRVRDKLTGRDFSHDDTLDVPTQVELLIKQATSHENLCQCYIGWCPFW
PI3K-gamma, sequence (P48736 whole entry, species assumed): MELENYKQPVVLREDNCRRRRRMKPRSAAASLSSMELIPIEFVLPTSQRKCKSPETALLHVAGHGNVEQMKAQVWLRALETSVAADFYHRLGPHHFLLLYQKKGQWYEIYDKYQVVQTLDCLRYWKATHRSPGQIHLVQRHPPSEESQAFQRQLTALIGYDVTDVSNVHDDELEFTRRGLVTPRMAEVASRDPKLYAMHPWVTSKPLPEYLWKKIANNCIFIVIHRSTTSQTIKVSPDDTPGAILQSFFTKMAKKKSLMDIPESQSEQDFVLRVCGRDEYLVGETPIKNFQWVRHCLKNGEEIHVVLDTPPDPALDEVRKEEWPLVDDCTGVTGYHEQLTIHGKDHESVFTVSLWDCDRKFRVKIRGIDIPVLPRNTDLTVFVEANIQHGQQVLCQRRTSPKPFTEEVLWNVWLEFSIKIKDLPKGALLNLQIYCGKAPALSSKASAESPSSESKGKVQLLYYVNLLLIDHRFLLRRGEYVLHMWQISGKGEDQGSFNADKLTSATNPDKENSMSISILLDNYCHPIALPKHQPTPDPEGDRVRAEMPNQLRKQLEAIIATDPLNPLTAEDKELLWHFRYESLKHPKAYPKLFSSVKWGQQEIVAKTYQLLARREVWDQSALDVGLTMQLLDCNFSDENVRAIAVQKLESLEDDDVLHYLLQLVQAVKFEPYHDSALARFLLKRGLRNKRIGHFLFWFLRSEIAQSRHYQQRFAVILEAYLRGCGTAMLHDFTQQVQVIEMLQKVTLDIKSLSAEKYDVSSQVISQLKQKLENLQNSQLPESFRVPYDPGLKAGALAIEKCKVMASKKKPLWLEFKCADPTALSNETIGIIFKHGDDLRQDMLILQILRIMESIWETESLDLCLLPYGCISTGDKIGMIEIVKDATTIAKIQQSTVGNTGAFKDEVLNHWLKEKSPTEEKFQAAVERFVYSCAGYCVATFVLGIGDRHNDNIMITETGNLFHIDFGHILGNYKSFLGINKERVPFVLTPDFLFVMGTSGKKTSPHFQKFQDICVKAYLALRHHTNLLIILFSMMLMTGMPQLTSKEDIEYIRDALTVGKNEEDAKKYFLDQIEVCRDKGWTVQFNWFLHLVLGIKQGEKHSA

## CN1CCN(c2ccc(NC(=O)Nc3ccc(-c4nc(N5C6CCC5COC6)cc(N5C[C@H]6C[C@@H]5CO6)n4)cc3)cc2)CC1 [1-[4-(4-methylpiperazin-1-yl)phenyl]-3-(4-{4-[(1R,4R)-2-oxa-5-azabicyclo[2.2.1]hept-5-yl]-6-(3-oxa-8-azabicyclo[3.2.1]oct-8-yl)pyrimidin-2-yl}phenyl)urea]
PI3K-alpha
  pIC50: 5.68
LNCap
  pIC50: 7.40
mTOR
  pIC50: 8.12
PI3K-gamma
  pIC50: 5.06
MDA468
  pIC50: 7.32

## CN1CCN(c2ccc(NC(=O)Nc3ccc(-c4nc(N5C6CCC5COC6)cc(N5C[C@@H]6C[C@H]5CO6)n4)cc3)cc2)CC1 [1-[4-(4-methylpiperazin-1-yl)phenyl]-3-(4-{4-[(1S,4S)-2-oxa-5-azabicyclo[2.2.1]hept-5-yl]-6-(3-oxa-8-azabicyclo[3.2.1]oct-8-yl)pyrimidin-2-yl}phenyl)urea]
PI3K-alpha
  pIC50: 5.75
LNCap
  pIC50: 8.00
mTOR
  pIC50: 8.01
PI3K-gamma
  pIC50: ≤ 5.00
MDA468
  pIC50: 7.74

## CN1CCN(c2ccc(NC(=O)Nc3ccc(-c4nc(C5CCOCC5)cc(N5C6CCC5COC6)n4)cc3)cc2)CC1 [1-[4-(4-methylpiperazin-1-yl)phenyl]-3-{4-[4-(3-oxa-8-azabicyclo[3.2.1]oct-8-yl)-6-(tetrahydro-2H-pyran-4-yl)pyrimidin-2-yl]phenyl}urea]
PI3K-alpha
  pIC50: 5.97
LNCap
  pIC50: ≥ 9.10
mTOR
  pIC50: 9.07
PI3K-gamma
  pIC50: 5.33
MDA468
  pIC50: 8.40

## CN1CCN(c2ccc(NC(=O)Nc3ccc(-c4nc(NC5CCOCC5)cc(N5C6CCC5COC6)n4)cc3)cc2)CC1 [1-[4-(4-methylpiperazin-1-yl)phenyl]-3-{4-[4-(3-oxa-8-azabicyclo[3.2.1]oct-8-yl)-6-(tetrahydro-2H-pyran-4-ylamino)pyrimidin-2-yl]phenyl}urea]
PI3K-alpha
  pIC50: 5.65
LNCap
  pIC50: 8.15
mTOR
  pIC50: 8.12
PI3K-gamma
  pIC50: 5.03
MDA468
  pIC50: 8.00

## CN1CCN(c2ccc(NC(=O)Nc3ccc(-c4nc(NCCS(C)(=O)=O)cc(N5C6CCC5COC6)n4)cc3)cc2)CC1 [1-[4-(4-methylpiperazin-1-yl)phenyl]-3-{4-[4-{[2-(methylsulfonyl)ethyl]amino}-6-(3-oxa-8-azabicyclo[3.2.1]oct-8-yl)pyrimidin-2-yl]phenyl}urea]
PI3K-alpha
  pIC50: 5.74
LNCap
  pIC50: 7.77
mTOR
  pIC50: 7.84
PI3K-gamma
  pIC50: ≤ 5.00
MDA468
  pIC50: 7.72

## CN1CCN(c2ccc(NC(=O)Nc3ccc(-c4nc(N5C6CCC5COC6)c(Cl)c(N5C6CCC5COC6)n4)cc3)cc2)CC1 [1-[4-(5-chloro-4,6-di-3-oxa-8-azabicyclo[3.2.1]oct-8-ylpyrimidin-2-yl)phenyl]-3-[4-(4-methylpiperazin-1-yl)phenyl]urea]
PI3K-alpha
  pIC50: 6.00
LNCap
  pIC50: 7.19
mTOR
  pIC50: 9.30
PI3K-gamma
  pIC50: 5.99
MDA468
  pIC50: 6.68

## O=C(Nc1ccc(-c2nc(N3C4CCC3COC4)c(Cl)c(N3C4CCC3COC4)n2)cc1)Nc1cccnc1 [1-[4-(5-chloro-4,6-di-3-oxa-8-azabicyclo[3.2.1]oct-8-ylpyrimidin-2-yl)phenyl]-3-pyridin-3-ylurea]
PI3K-alpha
  pIC50: 6.04
LNCap
  pIC50: 7.32
mTOR
  pIC50: 9.18
PI3K-gamma
  pIC50: 6.03
MDA468
  pIC50: 6.66

## CN1CCN(c2ccc(NC(=O)Nc3ccc(-c4nc(C5CCOCC5)cc(N5C6CCC5COC6)n4)cc3)cn2)CC1 [1-[6-(4-methylpiperazin-1-yl)pyridin-3-yl]-3-{4-[4-(3-oxa-8-azabicyclo[3.2.1]oct-8-yl)-6-(tetrahydro-2H-pyran-4-yl)pyrimidin-2-yl]phenyl}urea]
PI3K-alpha
  pIC50: 5.59
LNCap
  pIC50: ≥ 9.10
mTOR
  pIC50: 8.92
PI3K-gamma
  pIC50: ≤ 5.00
MDA468
  pIC50: 8.40

## CN(C)CCOc1ccc(NC(=O)Nc2ccc(-c3nc(N4C5CCC4COC5)cc(N4C[C@H]5C[C@@H]4CO5)n3)cc2)cc1 [1-{4-[2-(dimethylamino)ethoxy]phenyl}-3-(4-{4-[(1R,4R)-2-oxa-5-azabicyclo[2.2.1]hept-5-yl]-6-(3-oxa-8-azabicyclo[3.2.1]oct-8-yl)pyrimidin-2-yl}phenyl)urea]
PI3K-alpha
  pIC50: 5.56
LNCap
  pIC50: 6.92
mTOR
  pIC50: 7.92
PI3K-gamma
  pIC50: 5.02
MDA468
  pIC50: 6.89

## C[C@@H]1COCCN1c1cc(N2C3CCC2COC3)nc(-c2ccc(NC(=O)Nc3ccc(OCCN(C)C)cc3)cc2)n1 [1-{4-[2-(dimethylamino)ethoxy]phenyl}-3-(4-{4-[(3R)-3-methylmorpholin-4-yl]-6-(3-oxa-8-azabicyclo[3.2.1]oct-8-yl)pyrimidin-2-yl}phenyl)urea]
PI3K-alpha
  pIC50: 6.07
LNCap
  pIC50: 8.40
mTOR
  pIC50: 8.81
PI3K-gamma
  pIC50: 5.19
MDA468
  pIC50: 7.89

## CC(C)Nc1cc(N2C3COCC2COC3)nc(-c2ccc(NC(=O)Nc3ccc(OCCN(C)C)cc3)cc2)n1 [1-{4-[2-(dimethylamino)ethoxy]phenyl}-3-{4-[4-(3,7-dioxa-9-azabicyclo[3.3.1]non-9-yl)-6-(isopropylamino)pyrimidin-2-yl]phenyl}urea]
PI3K-alpha
  pIC50: 5.75
LNCap
  pIC50: 6.38
mTOR
  pIC50: 7.78
PI3K-gamma
  pIC50: 5.06
MDA468
  pIC50: 6.22

## CN(C)CCOc1ccc(NC(=O)Nc2ccc(-c3nc(C4CCOCC4)cc(N4C5CCC4COC5)n3)cc2)cc1 [1-{4-[2-(dimethylamino)ethoxy]phenyl}-3-{4-[4-(3-oxa-8-azabicyclo[3.2.1]oct-8-yl)-6-(tetrahydro-2H-pyran-4-yl)pyrimidin-2-yl]phenyl}urea]
PI3K-alpha
  pIC50: 5.84
LNCap
  pIC50: 8.40
mTOR
  pIC50: 8.94
PI3K-gamma
  pIC50: 5.14
MDA468
  pIC50: 7.96

## CN(C)CCOc1ccc(NC(=O)Nc2ccc(-c3nc(NC4CCOCC4)cc(N4C5CCC4COC5)n3)cc2)cc1 [1-{4-[2-(dimethylamino)ethoxy]phenyl}-3-{4-[4-(3-oxa-8-azabicyclo[3.2.1]oct-8-yl)-6-(tetrahydro-2H-pyran-4-ylamino)pyrimidin-2-yl]phenyl}urea]
PI3K-alpha
  pIC50: 5.95
LNCap
  pIC50: 7.52
mTOR
  pIC50: 8.12
PI3K-gamma
  pIC50: 5.34
MDA468
  pIC50: 7.32

## CN(C)CCOc1ccc(NC(=O)Nc2ccc(-c3nc(NCCS(C)(=O)=O)cc(N4C5CCC4COC5)n3)cc2)cc1 [1-{4-[2-(dimethylamino)ethoxy]phenyl}-3-{4-[4-{[2-(methylsulfonyl)ethyl]amino}-6-(3-oxa-8-azabicyclo[3.2.1]oct-8-yl)pyrimidin-2-yl]phenyl}urea]
PI3K-alpha
  pIC50: 5.73
LNCap
  pIC50: 6.32
mTOR
  pIC50: 7.59
PI3K-gamma
  pIC50: ≤ 5.00
MDA468
  pIC50: 6.38

## CC(C)Nc1cc(N2C3COCC2COC3)nc(-c2ccc(NC(=O)Nc3ccc(N4CCN(C)CC4)cc3)cc2)n1 [1-{4-[4-(3,7-dioxa-9-azabicyclo[3.3.1]non-9-yl)-6-(isopropylamino)pyrimidin-2-yl]phenyl}-3-[4-(4-methylpiperazin-1-yl)phenyl]urea]
PI3K-alpha
  pIC50: 5.82
LNCap
  pIC50: 6.55
mTOR
  pIC50: 7.84
PI3K-gamma
  pIC50: 5.10
MDA468
  pIC50: 6.49

## CC(C)Nc1cc(N2C3COCC2COC3)nc(-c2ccc(NC(=O)Nc3ccncc3)cc2)n1 [1-{4-[4-(3,7-dioxa-9-azabicyclo[3.3.1]non-9-yl)-6-(isopropylamino)pyrimidin-2-yl]phenyl}-3-pyridin-4-ylurea]
PI3K-alpha
  pIC50: 5.82
LNCap
  pIC50: 6.55
mTOR
  pIC50: 8.30
PI3K-gamma
  pIC50: 5.03
MDA468
  pIC50: 6.40

## CC(C)Nc1cc(N2C3COCC2COC3)nc(-c2ccc(NC(=O)Nc3ccc(CN4CCN(C)CC4)cc3)cc2)n1 [1-{4-[4-(3,7-dioxa-9-azabicyclo[3.3.1]non-9-yl)-6-(isopropylamino)pyrimidin-2-yl]phenyl}-3-{4-[(4-methylpiperazin-1-yl)methyl]phenyl}urea]
PI3K-alpha
  pIC50: 5.50
LNCap
  pIC50: 6.22
mTOR
  pIC50: 7.76
PI3K-gamma
  pIC50: 5.16
MDA468
  pIC50: 6.00
